Experimental data from patent US11643385B2, “Polymorphic forms of RAD1901-2HCl” (RADIUS PHARMACEUTICALS, INC., priority 2018, dated 2023).
Read-outs that look alike come from different tables or passages of the source. Marks after values point to notes of the source that are not given here.

Experiments:
Assay type in all cases: physicochemical
[1] = Solubility assessment of amorphous RAD1901-2HCl in water/organic solvent mixtures; details: for XRPD (form) after stirring: after stirring at 25° C. for 72 hours
Method: Samples of amorphous RAD1901-2HCl were prepared in water/organic solvent mixtures containing varying ratios of water. The organic solvents chosen were anhydrous ethanol, methanol and ethyl acetate. The percentage of water in the water/organic solvent mixtures was varied between 0 and 10% (v/v) in order to place a limit on the level of water that can be present during production processes, and to retain formation of Form 1. Above this water activity limit, the hydrated Form 3 will be obtained, as shown by GVS experiments (see FIGS. 6G and 20A). It should be noted that samples prepared in ethyl acetate, were either slurried in anhydrous ethyl acetate, or in water saturated ethyl acetate.
The water activity values for each water/organic solvent mixture are provided in Table 16, and were calculated using the reference given in Bell, Halling, Enzyme Microbiol. Technol. 1997, 20, 471, incorporated herein by reference.

[2] = Solubility assessment and polymorph screen on amorphous RAD1901-2HCl; details: for XRPD post 50° C./RT (form): after maturation at 50° C./RT; for Solubility observation at 10 vol.: amorphous RAD1901-2HCl, 10 vol. solvent (solvent per sample ID); for XRPD post 25° C. (form): after maturation at 25° C.
Method: In a scale-up preparation of amorphous RAD1901-2HCl, RAD1901-2HCl (600 mg) was dissolved in water (20 vol., 12 mL) and filtered to remove any remaining solid particles. The solution was then aliquoted into 24 HPLC vials, frozen in a dry ice/acetone bath and the solvent removed by lyophilisation. Solids produced by lyophilization were used directly in solubility assessment and polymorph screens in Example 4.
Amorphous RAD1901-2HCl prepared as described in Example 3B was used directly in solubility assessment and polymorph screens (Table 15). XRPD patterns were further obtained for amorphous RAD1901-2HCl prepared using other solvents.
In the polymorph screen of the amorphous RAD1901-2HCl prepared as described in Example 3B, an aliquot of each sample was examined for its morphology under the microscope, both after maturing at 25° C., and after maturing at 50° C./RT. […] In some instances, the sample appeared to be a mixture of various polymorphic forms, e.g. Form 2 and Form 3 (FIGS. 18B-18C), similar to the mixture of Forms 2 and 3 in Sample 2 having an equilibrium between the two solid forms, depending on the prevailing RH.

[3] = Storage at elevated temperature/humidity, solid form checked by XRPD; details: <40% RH, 8 hr
Method: Samples 1 and 2 were characterized by XRPD at various conditions. XRPD patterns were collected for the samples at ambient condition as the samples were provided; at variable temperature (VT-XRPD); at variable humidity (VH-XRPD); after the samples were exposed to 40° C./75% RH for 1 week and 25° C./97% RH for 1 week, respectively; and after a GVS measurement wherein the samples were exposed to 0-90% RH. Samples 1 and 2 were also characterized by ^1H NMR, TGA, DSC, KF, IC, GVS (exposed to 0-90% RH), PLM, SEM, and HPLC (Table 5). […]

CCNCCc1ccc(CN(CC)c2cc(OC)ccc2[C@@H]2CCc3cc(O)ccc3C2)cc1.Cl.Cl [Form C5.]
Observation After stirring at 25° C. for 72 hours [1]: S

CCNCCc1ccc(CN(CC)c2cc(OC)ccc2[C@@H]2CCc3cc(O)ccc3C2)cc1.Cl.Cl [amorphous RAD1901-2HCl]
Form crystallized in anhydrous ethanol ([1]; anhydrous ethanol): Form 1
Form produced by slurrying in anhydrous ethyl acetate ([1]; anhydrous ethyl acetate): Form 1
Form crystallized in anhydrous methanol ([1]; anhydrous methanol): Form 2
Form produced by slurrying in water-saturated ethyl acetate ([1]; water-saturated ethyl acetate, water activity 0.77): Form 3
Ratio of water/ethanol up to which crystals were Form 1 ([1]; water/ethanol): up to 5%
Water activity limit above which hydrate Form 3 results instead of Form 1 ([1]; water/ethanol): 0.39
Ratio of water/methanol up to which crystals were Form 2 ([1]; water/methanol): ≤ 2%
Water activity limit above which hydrate Form 3 results instead of Form 2 ([1]; water/methanol): 0.08

CCNCCc1ccc(CN(CC)c2cc(OC)ccc2[C@@H]2CCc3cc(O)ccc3C2)cc1.Cl.Cl [Form B2.]
XRPD post 50° C./RT (form) [2]: Form 2/3

CCNCCc1ccc(CN(CC)c2cc(OC)ccc2[C@@H]2CCc3cc(O)ccc3C2)cc1.Cl.Cl [Form 3]
Form obtained on exposure to <40% RH for 8 hr [3]: Form 2

CCNCCc1ccc(CN(CC)c2cc(OC)ccc2[C@@H]2CCc3cc(O)ccc3C2)cc1.Cl.Cl [Form C10.]
Solubility observation at 20 vol. [1]: X (X = suspension)
Solubility observation at 30 vol [1]: X (X = suspension)
XRPD (form) after stirring [1]: Form 3

CCNCCc1ccc(CN(CC)c2cc(OC)ccc2[C@@H]2CCc3cc(O)ccc3C2)cc1.Cl.Cl [Form B4.]
XRPD post 50° C./RT (form) [2]: Form 2/3
Solubility observation at 10 vol. [2]: X (X = suspension)

CCNCCc1ccc(CN(CC)c2cc(OC)ccc2[C@@H]2CCc3cc(O)ccc3C2)cc1.Cl.Cl [Form B23.]
XRPD post 25° C. (form) [2]: Form 3
XRPD post 50° C./RT (form) [2]: Form 3
Solubility observation at 10 vol. [2]: X (X = suspension)
Observation After maturation at 50° C. ([2]; maturation at 50° C./RT): Fine

CCNCCc1ccc(CN(CC)c2cc(OC)ccc2[C@@H]2CCc3cc(O)ccc3C2)cc1.Cl.Cl [Form B1.]
XRPD post 50° C./RT (form) [2]: Amorphous
Solubility observation at 10 vol. [2]: X (X = suspension)

CCNCCc1ccc(CN(CC)c2cc(OC)ccc2[C@@H]2CCc3cc(O)ccc3C2)cc1.Cl.Cl [Form B17.]
Observation After maturation at 50° C. [2]: Fine
XRPD post 50° C./RT (form) [2]: Form 1*

CCNCCc1ccc(CN(CC)c2cc(OC)ccc2[C@@H]2CCc3cc(O)ccc3C2)cc1.Cl.Cl [Form C3.]
XRPD (form) after stirring [1]: Form 1

CCNCCc1ccc(CN(CC)c2cc(OC)ccc2[C@@H]2CCc3cc(O)ccc3C2)cc1.Cl.Cl [Form B15.]
Observation After maturation at 50° C. [2]: Fine
XRPD post 50° C./RT (form) [2]: Form 3

CCNCCc1ccc(CN(CC)c2cc(OC)ccc2[C@@H]2CCc3cc(O)ccc3C2)cc1.Cl.Cl [Form B8.]
XRPD post 50° C./RT (form) [2]: Form 1
Solubility observation at 10 vol. [2]: X (X = suspension)
Observation After maturation at 50° C. ([2]; maturation at 50° C./RT): Crystalline

CCNCCc1ccc(CN(CC)c2cc(OC)ccc2[C@@H]2CCc3cc(O)ccc3C2)cc1.Cl.Cl [Form C9.]
Solubility observation at 20 vol. [1]: X (X = suspension)
Solubility observation at 30 vol [1]: X (X = suspension)
XRPD (form) after stirring [1]: Form 1*

CCNCCc1ccc(CN(CC)c2cc(OC)ccc2[C@@H]2CCc3cc(O)ccc3C2)cc1.Cl.Cl [Form B7.]
XRPD post 50° C./RT (form) [2]: Form 1^+
Solubility observation at 10 vol. [2]: X (X = suspension)

CCNCCc1ccc(CN(CC)c2cc(OC)ccc2[C@@H]2CCc3cc(O)ccc3C2)cc1.Cl.Cl [Form B16.]
XRPD post 50° C./RT (form) [2]: Form 3*

CCNCCc1ccc(CN(CC)c2cc(OC)ccc2[C@@H]2CCc3cc(O)ccc3C2)cc1.Cl.Cl [Form C4.]
XRPD (form) after stirring [1]: Form 1

CCNCCc1ccc(CN(CC)c2cc(OC)ccc2[C@@H]2CCc3cc(O)ccc3C2)cc1.Cl.Cl [Form C2.]
XRPD (form) after stirring [1]: Form 1

CCNCCc1ccc(CN(CC)c2cc(OC)ccc2[C@@H]2CCc3cc(O)ccc3C2)cc1.Cl.Cl [Form C7.]
Observation After stirring at 25° C. for 72 hours [1]: Crystals
XRPD (form) after stirring [1]: Form 2

CCNCCc1ccc(CN(CC)c2cc(OC)ccc2[C@@H]2CCc3cc(O)ccc3C2)cc1.Cl.Cl [Form B21.]
XRPD post 25° C. (form) [2]: Form 1
Observation After maturation at 50° C. ([2]; maturation at 50° C./RT): Needle

CCNCCc1ccc(CN(CC)c2cc(OC)ccc2[C@@H]2CCc3cc(O)ccc3C2)cc1.Cl.Cl [Form B22.]
XRPD post 25° C. (form) [2]: Form 3
Solubility observation at 10 vol. [2]: S (S = solution)
Observation After maturation at 25° C. [2]: S
Observation After maturation at 50° C. ([2]; maturation at 50° C./RT): Green

CCNCCc1ccc(CN(CC)c2cc(OC)ccc2[C@@H]2CCc3cc(O)ccc3C2)cc1.Cl.Cl [Form B13.]
XRPD post 25° C. (form) [2]: Amorphous
XRPD post 50° C./RT (form) [2]: Poor
Solubility observation at 10 vol. [2]: X (X = suspension)
Observation After maturation at 50° C. ([2]; maturation at 50° C./RT): Some

CCNCCc1ccc(CN(CC)c2cc(OC)ccc2[C@@H]2CCc3cc(O)ccc3C2)cc1.Cl.Cl [Form B20.]
XRPD post 50° C./RT (form) [2]: Form 1
Solubility observation at 10 vol. [2]: X (X = suspension)
Observation After maturation at 50° C. ([2]; maturation at 50° C./RT): Crystalline

CCNCCc1ccc(CN(CC)c2cc(OC)ccc2[C@@H]2CCc3cc(O)ccc3C2)cc1.Cl.Cl [Form B5.]
XRPD post 50° C./RT (form) [2]: Form 3
Solubility observation at 10 vol. [2]: X (X = suspension)

CCNCCc1ccc(CN(CC)c2cc(OC)ccc2[C@@H]2CCc3cc(O)ccc3C2)cc1.Cl.Cl [Form B14.]
XRPD post 50° C./RT (form) [2]: Poor
Solubility observation at 10 vol. [2]: X (X = suspension)

CCNCCc1ccc(CN(CC)c2cc(OC)ccc2[C@@H]2CCc3cc(O)ccc3C2)cc1.Cl.Cl [Form B6.]
XRPD post 50° C./RT (form) [2]: Form 1^+
Solubility observation at 10 vol. [2]: X (X = suspension)

CCNCCc1ccc(CN(CC)c2cc(OC)ccc2[C@@H]2CCc3cc(O)ccc3C2)cc1.Cl.Cl [Form B10.]
XRPD post 50° C./RT (form) [2]: Form 1
Solubility observation at 10 vol. [2]: X (X = suspension)
Observation After maturation at 50° C. ([2]; maturation at 50° C./RT): Fine

CCNCCc1ccc(CN(CC)c2cc(OC)ccc2[C@@H]2CCc3cc(O)ccc3C2)cc1.Cl.Cl [Form B11.]
Solubility observation at 10 vol. [2]: S (S = solution)
Observation After maturation at 25° C. [2]: S
Observation After maturation at 50° C. ([2]; maturation at 50° C./RT): S

CCNCCc1ccc(CN(CC)c2cc(OC)ccc2[C@@H]2CCc3cc(O)ccc3C2)cc1.Cl.Cl [Form C1.]
XRPD (form) after stirring [1]: Form 3

CCNCCc1ccc(CN(CC)c2cc(OC)ccc2[C@@H]2CCc3cc(O)ccc3C2)cc1.Cl.Cl [Form B3.]
XRPD post 50° C./RT (form) [2]: Form 2/3
Solubility observation at 10 vol. [2]: X (X = suspension)

CCNCCc1ccc(CN(CC)c2cc(OC)ccc2[C@@H]2CCc3cc(O)ccc3C2)cc1.Cl.Cl [Form C6.]
Observation After stirring at 25° C. for 72 hours [1]: Crystals
XRPD (form) after stirring [1]: Form 3*

CCNCCc1ccc(CN(CC)c2cc(OC)ccc2[C@@H]2CCc3cc(O)ccc3C2)cc1.Cl.Cl [Form C8.]
Observation After stirring at 25° C. for 72 hours [1]: Crystals
XRPD (form) after stirring [1]: Form 2
